Measurements from ChEMBL document CHEMBL1131969, “Quinoline-2,4-dicarboxylic acids: synthesis and evaluation as inhibitors of the glutamate vesicular transport system” (Bioorg Med Chem Lett, 1999).

Assays:
[1] = Compound was evaluated for the kinetic parameter (Km); format: ADME
[2] = Compound was evaluated for the kinetic parameter Vmax (maximum velocity); format: ADME

Km [1]: 1.65 µM | Vmax [2]: 18.3 pM/min/mg
SMILES: N[C@@H](CCC(=O)O)C(=O)O [GLUTAMIC ACID]
